From US20090176841A1, “NOVEL 6-5 SYSTEM BICYCLIC HE[…] ITS PHAR[…]” (Sanwa Kagaku Kenkyusho Co., Ltd., priority 2006, published 2009)

Columns and labels:
recombinant human TRα = molecular target: T1, recombinant human TRα (Homo sapiens, UniProt P10827); test: biochemical; conditions: TR[…] (IC50, nM), displacement of 125I-T3 (0.16 nM)
T1 sequence (P10827 190-410 isoform P10827-2): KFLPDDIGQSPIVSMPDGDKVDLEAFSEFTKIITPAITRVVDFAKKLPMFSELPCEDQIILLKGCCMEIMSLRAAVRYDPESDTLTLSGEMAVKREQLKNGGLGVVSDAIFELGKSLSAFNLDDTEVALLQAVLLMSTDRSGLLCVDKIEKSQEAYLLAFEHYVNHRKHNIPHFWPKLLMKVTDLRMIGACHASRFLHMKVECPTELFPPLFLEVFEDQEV
Excerpt: (§1) Thyroid Hormone Receptor Binding Test
(§2) (1) Preparation of Fused Protein Having Ligand Binding Region of Thyroid Hormone Receptor
(§3) Human TRα and human TRβ ligand binding domains were expressed in Escherichia coli as a fused protein (recombinant human TRα or recombinant human TRβ) having TRα and TRβ ligand binding domains at a C-terminus of His-Patch Thioredoxin using the His-Patch Thioredoxin fusing protein expressing system (Invitrogen).
(§4) A nucleotide sequence of a region corresponding to the fused protein was confirmed by DNA sequence analysis.
(§5) Escherichia coli by which the fused protein had been subjected to expression inducement were collected by a centrifugation method, and ground using ultrasound to prepare a ground cell liquid containing the fused protein. The ground cell liquid was centrifuged at 15000 rpm for about 30 minutes, and a solution containing the fused protein from the supernatant using a nickel chelating column was obtained. An NAP-10 column was replaced with a binding solution (20 mM, Tris-HCl, 0.15 M NaCl, 8% Glycerol, 0.1% BSA, 1 mM EDTA, 10 mM 2-melcaptethanol). The resulting binding solution containing the fused protein was frozen and stored at −70° C. or lower.
(§6) (2) Binding Affinity for Thyroid Hormone Receptor
(§7) This binding solution (60 μL) was added to all wells of a 96-well plate (MILLIPORE MultiScreen-HV, Cat. No. MANVN4550, Lot. No. F4SN86613). […] 80 μL of SephadexG25 was added to each well of MultiScreen-HV (MILLIPORE, Cat. No. MANVN4550, Lot. No. F4SN86613), the binding solution was added to sufficiently swell, and this was centrifuged at 600×g for 1 minute to prepare a column of SephadexG25. […] Again, 25 μL untreated binding solution was overlaid on the SephadexG25 column, and this was immediately centrifuged at 600×g for 1 minute. […] As an amount of recombinant human TRα or recombinant human TRβ used in the present test, an amount by which proper radioactivity is obtained in a range where an addition amount of the receptor and an amount of the complex in the above test system, was used.
(§8) This was divided by the total complex amount to calculate a binding rate as the following equation:
(§9) Binding rate=remaining complex amount/total complex amount

recombinant human TRβ = molecular target: T2, recombinant human TRβ (Homo sapiens, UniProt P10828); test: biochemical; conditions: TR[…] (IC50, nM), displacement of 125I-T3 (0.16 nM)
T2 sequence (P10828 244-461): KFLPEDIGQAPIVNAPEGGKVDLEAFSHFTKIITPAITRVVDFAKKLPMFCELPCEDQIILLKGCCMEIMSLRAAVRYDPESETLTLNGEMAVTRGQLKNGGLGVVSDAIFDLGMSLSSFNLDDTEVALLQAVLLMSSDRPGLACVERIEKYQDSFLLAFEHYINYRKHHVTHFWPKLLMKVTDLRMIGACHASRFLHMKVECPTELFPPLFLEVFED
Excerpt: as §1, §2, §3, §4, §5, §6, §7, §8, §9

IC50 (recombinant human TRα) [nM] | IC50 (recombinant human TRβ) [nM] | Structure (SMILES)
170 | 9.4 | CCC(C)c1cc(Cn2c(C)cc3c(NC(=O)CC(=O)O)ccc(C)c32)ccc1O (centres unmarked) [Example 123]
66 | 8.7 | Cc1ccc(NC(=O)C(=O)O)c2cc(C)n(Cc3ccc(O)c(Cc4ccc(F)cc4)c3)c12 [Example 125]
1900 | 320 | CCOc1cc(Cn2c(C)cc3c(NC(=O)C(=O)O)ccc(C)c32)ccc1O [Example 126]
260 | 7.5 | Cc1ccc(NC(=O)CC(=O)O)c2cc(C)n(Cc3ccc(O)c(C(O)c4ccc(F)cc4)c3)c12 (centres unmarked) [Example 129, N-(1-{3-[(4-fluorophenyl)hydroxymethyl]-4-hydroxybenzyl}-2,7-dimethyl-1H-indol-4-yl)malonamic acid]
